Data from patent US7371536B2, “Methods for transporting vitamin C” (priority 1999, dated 2008).

Assays:
human SVCT2 = target: T1, human SVCT2 (Homo sapiens, UniProt Q9UGH3, A167T); assay: L-[14C]ascorbic acid radiotracer uptake in Xenopus oocytes expressing human SVCT2; format: cell-based
T1 construct: expressed in transfected cells; host or cells: Xenopus laevis oocytes injected with cRNA (vector pTLN2)
Protocol: (§1) Functional characterization in Xenopus oocytes—SVCT1 and SVCT2 cDNAs were subcloned into the pTLN2 vector (to improve functional expression in oocytes) and used for cRNA synthesis in vitro using the MEGAscript kit and T7 RNA polymerase (from Ambion). Oocytes were isolated from Xenopus laevis, treated with collagenase A and maintained at 18° C. in modified Barths' medium. Oocytes were injected with 15 ng SVCT1 or SVCT2 cRNA or water only. The radiotracer uptake and voltage-clamp experiments described below were conducted 2-5 days post-injection in standard medium of composition 100 mM NaCl, 2 mM KCl, 1 mM CaCl2, 1 mM MgCl2, and 10 mM HEPES (buffered to pH 7.5 with Tris base). For low-Na^+ or Na^+-free media, NaCl was replaced with choline chloride. For pH-dependence experiments, Na^+ media were buffered to between pH 5.5 and pH 8.0 using 0-5 mM MES, 0-5 mM HEPES and 0-5 mM Tris base. L-Ascorbic acid-containing solutions were always freshly prepared and used immediately. Radiotracer uptake was determined by incubating 8-12 oocytes for 30 min (within the time-course of linear uptake) in standard Na^+, low-Na^+ or Na^+-free media with 10-500 μM L-[1-^14C]ascorbic acid (final specific activity ≈0.3 GBq/mmol). Oocytes were solubilized with 10% SDS and carbon-14 content measured by liquid scintillation counting. A two-microelectrode voltage-clamp was used to measure currents associated with SVCT1 expressed in oocytes. Oocytes were superfused at 22° C. in standard Na^+ medium and clamped at −50 mV. Current was continuously monitored by sampling at 1 Hz. Test solutions were always washed out with substrate-free, Na^+-free medium at pH 7.5 for several minutes. Once again, saturation kinetics data were fit to a modified Hill equation in which I and Imax were replaced by uptake V and maximal velocity Vmax for analysis of radiotracer uptake data.

human SVCT1 = target: T2, human SVCT1 (Homo sapiens, UniProt Q9UHI7); assay: L-[14C]ascorbic acid radiotracer uptake in Xenopus oocytes expressing human SVCT1; format: cell-based
T2 construct: expressed in transfected cells; host or cells: Xenopus laevis oocytes injected with cRNA (vector pTLN2)
Protocol: as §1, with “Radiotracer uptake was determined by incubating 8-12 oocytes for 30 min (within the time-course of linear uptake) in standard Na^+, low-Na^+ or Na^+-free media with 10-500 μM L-[1-^14C]ascorbic acid (final specific activity ≈0.3 GBq/mmol).” left out

T1 sequence (Q9UGH3 whole entry A167T): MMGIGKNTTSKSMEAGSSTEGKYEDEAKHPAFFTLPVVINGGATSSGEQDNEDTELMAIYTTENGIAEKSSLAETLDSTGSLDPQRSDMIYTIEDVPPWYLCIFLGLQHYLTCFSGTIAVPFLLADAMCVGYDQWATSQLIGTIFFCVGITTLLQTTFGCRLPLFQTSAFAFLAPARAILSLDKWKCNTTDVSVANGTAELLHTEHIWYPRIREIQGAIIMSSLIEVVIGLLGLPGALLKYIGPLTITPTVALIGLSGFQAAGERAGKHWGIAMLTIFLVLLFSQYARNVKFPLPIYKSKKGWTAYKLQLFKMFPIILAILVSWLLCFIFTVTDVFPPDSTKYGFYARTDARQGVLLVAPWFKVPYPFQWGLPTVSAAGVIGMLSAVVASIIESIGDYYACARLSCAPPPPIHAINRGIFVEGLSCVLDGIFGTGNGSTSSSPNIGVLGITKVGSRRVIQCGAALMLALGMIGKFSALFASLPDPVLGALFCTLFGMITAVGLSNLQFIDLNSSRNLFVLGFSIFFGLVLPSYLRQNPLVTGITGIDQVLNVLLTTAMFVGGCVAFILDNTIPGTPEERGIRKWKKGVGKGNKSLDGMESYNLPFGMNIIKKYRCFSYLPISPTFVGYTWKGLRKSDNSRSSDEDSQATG
T2 sequence (Q9UHI7 whole entry): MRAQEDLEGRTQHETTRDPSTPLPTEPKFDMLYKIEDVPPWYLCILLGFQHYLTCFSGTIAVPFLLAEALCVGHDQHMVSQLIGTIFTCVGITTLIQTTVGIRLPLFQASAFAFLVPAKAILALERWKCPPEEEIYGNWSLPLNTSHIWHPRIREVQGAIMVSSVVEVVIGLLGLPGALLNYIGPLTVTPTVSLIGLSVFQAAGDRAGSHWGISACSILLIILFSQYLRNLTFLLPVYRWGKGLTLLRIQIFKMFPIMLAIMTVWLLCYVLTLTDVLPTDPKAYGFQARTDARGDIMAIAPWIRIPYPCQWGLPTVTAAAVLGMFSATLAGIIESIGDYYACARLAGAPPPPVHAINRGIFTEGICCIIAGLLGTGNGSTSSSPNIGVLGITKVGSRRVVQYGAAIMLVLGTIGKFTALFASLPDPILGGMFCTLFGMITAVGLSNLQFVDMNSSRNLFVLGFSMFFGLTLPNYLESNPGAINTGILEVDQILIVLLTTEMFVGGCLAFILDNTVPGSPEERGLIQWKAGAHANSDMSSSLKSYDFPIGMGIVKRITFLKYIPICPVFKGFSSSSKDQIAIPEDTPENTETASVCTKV

- stimulation of uptake compared with control oocytes (human SVCT2): 15 fold
- uptake of L-[14C]ascorbic acid (human SVCT2): 1.2±0.1 pmol/min per oocyte
- K0.5 of L-[14C]ascorbic acid transport (human SVCT2; radiotracer uptake, FIG. 10): 65 µM
- inhibition of the uptake of 100 μM L-[14C]ascorbic acid (in words) (human SVCT2; saturating concentration): inhibited
- stimulation of uptake compared with water-injected control oocytes (human SVCT1; 500 μM L-[14C]ascorbic acid): 200 fold
- uptake of L-[14C]ascorbic acid (human SVCT1; 500 μM L-[14C]ascorbic acid): 15.5±1.2 pmol/min per oocyte
- Hill coefficient (nH) (human SVCT1; radiotracer uptake): ~1
- half-maximal concentration (K0.5) of uptake (human SVCT1; radiotracer uptake, Michaelis-Menten-type saturation): ≈ 90 μM
SMILES: O=C1O[C@H]([C@@H](O)CO)C(O)=C1O [L-ascorbic acid]
